Measured values as given in patent publication US5134137A, “Cephalosporin antibiotics” (The Upjohn Company, priority 1990, dated 1992).
In brackets after ≈: the same amount, converted by molar mass. Like-named read-outs stand apart in the source and are kept apart here.

How the values were obtained:
Streptococcus agalactiae = assay: MIC, agar dilution, Streptococcus agalactiae; type: cell-based; details: Streptococcus agalactiae, read-out: MIC
Summary of the method: (§1)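 Each organism receives an inoculum of approx. 10^3–10^4 CFU, taken from a 5% CO2 BHI subculture standardised to 0.5 McFarland and diluted 1:20. It is spotted on Mueller-Hinton agar containing the compound, then incubated for 16–18 h at 37 °C with CO2.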

[1] = test system: Bordetella bronchiseptica; assay: MIC, agar dilution, Bordetella bronchiseptica; type: cell-based; details: Bordetella bronchiseptica, read-out: MIC
Summary of the method: as §1

Pseudomonas aeruginosa = assay: MIC, agar dilution, Pseudomonas aeruginosa; type: cell-based; details: Pseudomonas aeruginosa; strain ATCC27853; read-out: MIC
Summary of the method: as §1

Salmonella typhimurium [2] = assay: Systemic infection model in mice, ED50, Salmonella typhimurium; type: in vivo; details: Salmonella enterica, 144 h, 50% survival six days post infection, per day, read-out: ED50 (95% confidence limits)
Description: (§2) Experimental Infections and Antitiotic Treatment (for ED50 in mice tests).
(§3) Mice are infected and treated with the test antibiotic compound according to procedures described previously [Yancey, Jr., R. J. et at. supra].
(§4) The test antibiotic compound is administered subcutaneously immediately following infection, then at 24 hours and 48 hours post infection. The medium effective dose (ED50) number is determined for all infections. The ED50 value is defined as the calculated concentration of the test antibiotic compound in mg. of compound per kilogram of mouse body weight per day at which 50% of the animals survived six days post infection.

Streptococcus uberis = assay: MIC, agar dilution, Streptococcus uberis; type: cell-based; details: Streptococcus uberis, read-out: MIC
Summary of the method: as §1

Staphylococcus aureus = assay: MIC, agar dilution, Staphylococcus aureus; type: cell-based; details: Staphylococcus aureus, read-out: MIC
Summary of the method: as §1

Strep. faecalis = assay: MIC, agar dilution, Strep. faecalis; type: cell-based; details: Enterococcus faecalis
Description: Stock solution of each test antibiotic compound were prepared to have a concentration of 2 mg. of the test compound per milliliter in sterile water of 0.1M ammonium acetate solution. The amount of each compound used was adjusted for base compound activity as calculated from the purity data for the selected batch of compound.
The dilution procedure described by Washington and Sutter [Manual of Clinical Microbiology, 3rd, Edit. (Lennett, E. H. et al, Eds.), pp. 453-458 (1980), American Society for Microbiology, Washington, D.C.] was modified so that serial concentrations of 128 to 0.0625 microgram/ml. in sterile water was obtained. Then 1.5 ml. aliquots of these test antibiotic dilution mixtures are added to 13.5 molten (50° C.) Mueller-Hinton agar. Each resulting mixture is poured into 15×100 mm, sterile Petri plates and allowed to dry at room temperature overnight.
Test bacterial cultures are maintained at -70° C. on glass beads. [See R. J. Yancey, Jr. et al, Amer. Jr. of Vet. Research, 48, No. 7, pp. 1050-1053, (1987)]. At least one bacteria-laden bead per culture is dropped into one ml. of brain heart infusion (BHI) broth for overnight culture at 37° C. in 5% V/V carbon dioxide in air atmosphere.
On the data of assay, 2 to 8 drops of the bacterial broth cultures are transferred to fresh BHI broth (1 ml.) and the mixture is incubated for 4 to 6 hours at 37° C. in a 5% V/V carbon dioxide in air atmosphere. The resulting cultures are then diluted to match a 0.5 MacFarland standard and further diluted 1:20 V/V with sterile saline solution.
A 0.001 ml. drop of the resulting mixture, containing approximately 10^3 to 10^4 colony forming units (CFU) of each test bacteria organism, is dispensed onto the surface of the test antibiotic compound test plates with a Steer's type replicator. The resulting innoculated plates are incubated 16 to 18 hours at 37° C. with a carbon dioxide atmosphere.

Salmonella choleraesuis = assay: MIC, agar dilution, Salmonella choleraesuis; type: cell-based; details: Salmonella enterica, read-out: MIC
Summary of the method: as §1

Corynebacterium pyogenes = assay: MIC, agar dilution, Corynebacterium pyogenes; type: cell-based; details: strain 213-2; read-out: MIC
Summary of the method: as §1

Salmonella typhimurium [3] = assay: MIC, agar dilution, Salmonella typhimurium; type: cell-based; details: Salmonella enterica, read-out: MIC
Summary of the method: as §1

P. hemolytica = assay: Systemic infection model in mice, ED50, P. hemolytica; type: in vivo; details: Mus musculus, sc, 144 h, 50% survival six days post infection, per day, read-out: ED50 (95% confidence limits)
Description: as §2, §3, §4

[4] = TYPHIMURIUM / UC6162, sc, strain UC6162, subcutaneous, 0, 24, 48 hours post infection
[5] = TYPHIMURIUM / UC6164, sc, strain UC6164, lactamase producing, subcutaneous, 0, 24, 48 hours post infection
[6] = CHOLERAESUIS / UC6073, strain UC6073
[7] = CHOLERAESUIS / UC6077, strain UC6077
[8] = TYPHIMURIUM / UC6162, strain UC6162
[9] = TYPHIMURIUM / UC6164, strain UC6164
[10] = strain UC6531, subcutaneous, 0, 24, 48 hours post infection
[11] = strain UC6532, lactamase producing, subcutaneous, 0, 24, 48 hours post infection

Row | MIC (Streptococcus agalactiae; strain UC3947) [µg/mL] | MIC (Streptococcus agalactiae; strain UC6892) [µg/mL] | MIC ([1]; strain UC3287) [µg/mL] | MIC ([1]; strain UC6313) [µg/mL] | MIC (Pseudomonas aeruginosa) [µg/mL] | MIC (Streptococcus uberis; strain UC3946) [µg/mL] | MIC (Streptococcus uberis; strain UC6159) [µg/mL] | MIC (Staphylococcus aureus; strain ATCC25923) [µg/mL] | MIC (Staphylococcus aureus; strain UC6093) [µg/mL] | MIC (Staphylococcus aureus; strain UC6097) [µg/mL] | MIC (Staphylococcus aureus; strain UC6688) [µg/mL] | MIC (Staphylococcus aureus; strain UC9201) [µg/mL] | MIC (Strep. faecalis; strain ATCC29212) [µg/mL] | MIC (Strep. faecalis; strain UC241) [µg/mL] | MIC (Strep. faecalis; strain UC694) [µg/mL] | MIC (Corynebacterium pyogenes) [µg/mL] | SMILES | ED50 (Salmonella typhimurium [2]; [4]) [mg/kg] | ED50 (Salmonella typhimurium [2]; [5]) [mg/kg] | MIC (Salmonella choleraesuis; [6]) [µg/mL] | MIC (Salmonella choleraesuis; [7]) [µg/mL] | other results
1 | ≤ 0.06 | ≤ 0.06 | > 32 | > 32 | > 32 | 0.25 | 32 | 16 | 16 | 16 | > 32 | 16 | > 32 | > 32 | > 32 | 0.25 | CO/N=C(\C(=O)N[C@@H]1C(=O)N2C(C(=O)O)=C(CS)CS[C@H]12)c1csc(N)n1 [Formula III compound, 3-mercaptomethyl-7β-[2-(2-amino-1,3-thiazol-4-yl)-(Z)-2-(methoxyimino)acetamido]ceph-3-em-4-carboxylic acid] | 0.3 | 0.5 | 2 | 1 | MIC (Salmonella typhimurium [3]; [8]): 0.5 µg/mL; MIC (Salmonella typhimurium [3]; [9]): 0.5 µg/mL; ED50 (P. hemolytica; [10]): 0.8 mg/kg; ED50 (P. hemolytica; [11]): 0.8 mg/kg
2 | ≤ 0.06 | ≤ 0.06 | > 32 | > 32 | 32 (≈ 61.1 µM) | ≤ 0.06 | 0.25 (≈ 0.477 µM) | 0.25 (≈ 0.477 µM) | 1 (≈ 1.91 µM) | 0.5 (≈ 0.955 µM) | 32 (≈ 61.1 µM) | 1 (≈ 1.91 µM) | 32 (≈ 61.1 µM) | > 32 | > 32 | < 0.06 | CO/N=C(\C(=O)N[C@@H]1C(=O)N2C(C(=O)O)=C(CSC(=O)c3ccco3)CS[C@H]12)c1csc(N)n1 [ceftiofur, 7-[2-(amino-1,3-thiazol-4-yl)-2-(methoxyimino)acetamido]-3-[(fur-2-ylcarbonyl)thiomethyl]-3-cephem-4-carboxylic acid, reference compound] | 0.4 | 0.5 | 1 (≈ 1.91 µM) | 2 (≈ 3.82 µM) | MIC (Salmonella typhimurium [3]; [8]): 0.25 µg/mL (≈ 0.477 µM); MIC (Salmonella typhimurium [3]; [9]): 0.25 µg/mL (≈ 0.477 µM); ED50 (P. hemolytica; [10]): 0.8 mg/kg; ED50 (P. hemolytica; [11]): 0.9 mg/kg

Row | SMILES | MIC (Streptococcus agalactiae; strain UC3947) [µg/mL] | MIC (Streptococcus agalactiae; strain UC6892) [µg/mL] | MIC ([1]; strain UC3287) [µg/mL] | MIC ([1]; strain UC6313) [µg/mL] | MIC (Pseudomonas aeruginosa) [µg/mL] | MIC (Streptococcus uberis; strain UC3946) [µg/mL] | MIC (Streptococcus uberis; strain UC6159) [µg/mL] | MIC (Staphylococcus aureus; strain ATCC25923) [µg/mL] | MIC (Staphylococcus aureus; strain UC6093) [µg/mL] | MIC (Staphylococcus aureus; strain UC6097) [µg/mL] | MIC (Staphylococcus aureus; strain UC6688) [µg/mL] | MIC (Staphylococcus aureus; strain UC9201) [µg/mL] | MIC (Strep. faecalis; strain ATCC29212) [µg/mL] | MIC (Strep. faecalis; strain UC241) [µg/mL] | MIC (Strep. faecalis; strain UC694) [µg/mL] | MIC (Corynebacterium pyogenes) [µg/mL] | ED50 (Salmonella typhimurium [2]; [4]) [mg/kg] | ED50 (Salmonella typhimurium [2]; [5]) [mg/kg] | MIC (Salmonella choleraesuis; [6]) [µg/mL] | MIC (Salmonella choleraesuis; [7]) [µg/mL] | other results
3 | CO/N=C(\C(=O)N[C@@H]1C(=O)N2C(C(=O)O)=C(CO)CS[C@H]12)c1csc(N)n1 [desacetyl cefotoxime, 7-[2-(2-amino-1,3-thiazol-4-yl)-(syn)-2-methoxyiminoacetamido]-3-hydroxymethylceph-3-em-4-carboxylic acid, reference compound] | ≤ 0.6 | ≤ 0.06 | > 32 | > 32 | > 32 | ≤ 0.06 | 16 (≈ 38.7 µM) | 4 (≈ 9.67 µM) | 16 (≈ 38.7 µM) | 16 (≈ 38.7 µM) | > 32 | 16 (≈ 38.7 µM) | > 32 | > 32 | > 32 | 0.25 (≈ 0.605 µM) | 0.8 | 1 | 0.5 (≈ 1.21 µM) | 1 (≈ 2.42 µM) | MIC (Salmonella typhimurium [3]; [8]): 0.13 µg/mL (≈ 0.314 µM); MIC (Salmonella typhimurium [3]; [9]): 0.13 µg/mL (≈ 0.314 µM); ED50 (P. hemolytica; [10]): 0.3 mg/kg; ED50 (P. hemolytica; [11]): 0.6 mg/kg
